What was measured:
[1] = (§1) The drug is tested on Z-003 corresponding to pig gut metagenome with ENA study accession number: PRJEB37062 and ENA sample accession number: ERS12561803 for biotransformation under anaerobic condition. The drug concentrations were measured over 9 timepoints collected between 0 and 24 hours of incubation by liquid-chromatography-coupled mass spectrometry (LC–MS); settings: 2 µM
[2] = human gut metagenome, 24 h, 2 µM
[3] = human gut metagenome, 24 h, 2 µM; remark: listed apart in the source
[4] = human gut metagenome, 24 h, 2 µM; remark: listed apart in the source
[5] = human gut metagenome, 24 h, 2 µM; remark: listed apart in the source
[6] = human gut metagenome, 24 h, 2 µM; remark: listed apart in the source
[7] = human gut metagenome, 24 h, 2 µM; remark: listed apart in the source
[8] = as §1, with “Z-009” for “Z-003”, “ERS12561809” for “ERS12561803”; settings: 2 µM
[9] = as §1, with “WLS-038” for “Z-003”, “human” for “pig”, “ERS12561745” for “ERS12561803”; settings: 2 µM
[10] = human gut metagenome, 24 h, 2 µM; remark: listed apart in the source
[11] = human gut metagenome, 24 h, 2 µM; remark: listed apart in the source
[12] = as §1, with “WLS-098” for “Z-003”, “human” for “pig”, “ERS12561754” for “ERS12561803”; settings: 2 µM
[13] = as §1, with “Z-005” for “Z-003”, “to” for “to pig gut”, “ERS12561805” for “ERS12561803”; settings: 2 µM
[14] = as §1, with “Z-020” for “Z-003”, “rabbit” for “pig”, “ERS12561819” for “ERS12561803”; settings: 2 µM
[15] = human gut metagenome, 24 h, 2 µM; remark: listed apart in the source
[16] = as §1, with “WLS-370” for “Z-003”, “human” for “pig”, “ERS12561793” for “ERS12561803”; settings: 2 µM
[17] = as §1, with “WLS-090” for “Z-003”, “human” for “pig”, “ERS12561753” for “ERS12561803”; settings: 2 µM
[18] = human gut metagenome, 24 h, 2 µM; remark: listed apart in the source
[19] = human gut metagenome, 24 h, 2 µM; remark: listed apart in the source
[20] = human gut metagenome, 24 h, 2 µM; remark: listed apart in the source
Note: call rule not given here.

Compound | Bacterial Biotransformation [1] | Bacterial Biotransformation [2] | Bacterial Biotransformation [3] | Bacterial Biotransformation [4] | Bacterial Biotransformation [5] | Bacterial Biotransformation [6] | Bacterial Biotransformation [7] | Bacterial Biotransformation [8] | Bacterial Biotransformation [9] | Bacterial Biotransformation [10] | Bacterial Biotransformation [11] | Bacterial Biotransformation [12] | Bacterial Biotransformation [13] | Bacterial Biotransformation [14] | Bacterial Biotransformation [15] | Bacterial Biotransformation [16] | Bacterial Biotransformation [17] | Bacterial Biotransformation [18] | Bacterial Biotransformation [19] | Bacterial Biotransformation [20]
CCOC(=O)C1=C[C@]2(CC)CCCN3CCc4c(n1c1ccccc41)[C@@H]32 [VINPOCETINE] | Compound metabolized | Compound NOT metabolized | Compound metabolized | Compound metabolized | Compound metabolized | Compound NOT metabolized | Compound metabolized | Compound metabolized | Compound NOT metabolized | Compound metabolized | Compound NOT metabolized | Compound metabolized | Compound NOT metabolized | Compound metabolized | Compound metabolized | Compound metabolized | Compound metabolized | Compound metabolized | Compound NOT metabolized | Compound NOT metabolized
C[C@@H](c1ncncc1F)[C@](O)(Cn1cncn1)c1ccc(F)cc1F [VORICONAZOLE] | Compound metabolized | Compound metabolized | Compound metabolized | Compound metabolized | Compound metabolized | Compound metabolized | Compound metabolized | Compound metabolized | Compound metabolized | Compound metabolized | Compound NOT metabolized | Compound metabolized | Compound metabolized | Compound metabolized | Compound metabolized | Compound metabolized | Compound metabolized | Compound metabolized | Compound metabolized | Compound metabolized
CCN(C(C)=O)c1cccc(-c2ccnc3c(C#N)cnn23)c1 [ZALEPLON] | Compound metabolized | Compound NOT metabolized | Compound metabolized | Compound metabolized | Compound metabolized | Compound metabolized | Compound metabolized | Compound metabolized | Compound metabolized | Compound metabolized | Compound metabolized | Compound metabolized | Compound NOT metabolized | Compound metabolized | Compound metabolized | Compound metabolized | Compound metabolized | Compound metabolized | Compound metabolized | Compound NOT metabolized

Reference: ChEMBL document CHEMBL5724914, “Linking interpersonal differences in gut microbiota composition and drug biotransformation activity” (2024)
